This is an account of results in patent publication US10039759B2, “Quinolines as FGFR kinase modulators” (priority 2011, dated 2018).

Molecules are shown by their SMILES.

For assay [1], the target named is T1, Ba/F3-FGFR3-transfected cells (Homo sapiens, UniProt P22607, cells depend on it, form not given).
T1 construct: BAF3-FGFR3 (MIN IL3 Alamar Blue- pIC50); other: minus IL3; 24 hours, Alamar Blue
The experiment in a line: Ba/F3-FGFR3 (minus IL3 or plus IL3) cellular proliferation assay, Alamar Blue. Format: cell-based. The following applies: minus IL3; 24 hours, Alamar Blue. In a few lines:
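Ba/F3-FGFR3 cells (20000 per well) in phenol red-free RPMI-1640 with 10% FBS were exposed to compound (10 μM to 0.1 nM) for 24 h at 37° C. Alamar Blue was then added for 4 h and fluorescence read (ex 540, em 590 nm) to give IC50/pIC50; the counterscreen was run with 10 ng/ml murine IL3.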
(Alamar Blue is a resazurin reagent that responds to reducing activity.)

The target of assay [2] is T2, Ba/F3-KDR-transfected cells (Homo sapiens, UniProt P35968, cells depend on it, form not given).
T2 construct: BAF3-KDR (MIN IL3 Alamar Blue pIC50); other: minus IL3; 24 hours, Alamar Blue
In words: Ba/F3-KDR (minus IL3 or plus IL3) cellular proliferation assay, Alamar Blue. Format: cell-based. The following applies: minus IL3; 24 hours, Alamar Blue. In a few lines: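 Ba/F3-KDR cells, 20000 per well, exposed to compounds (10 μM to 0.1 nM) for 24 h at 37°C in RPMI/10% FBS, then Alamar Blue for 4 h; fluorescence ex 540/em 590 nm gives IC50 and pIC50. Counterscreen run with 10 ng/ml murine IL3.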

In assay [3] the target is Ba/F3-FGFR4-transfected cells (Homo sapiens, UniProt P22455). The experiment in a line: Ba/F3-FGFR4 cellular proliferation assay, Alamar Blue. The conditions noted are these: 24 hours. It counts as cell-based. In a few lines: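 Ba/F3 cells transfected with human FGFR4, 20000 per well in phenol red-free RPMI-1640 with 10% FBS, exposed to compound (10 μM to 0.1 nM) for 24 h at 37 °C. Viability by Alamar Blue (resazurin), 4 h, fluorescence ex 540/em 590 nm; IC50 and pIC50 calculated.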

The target in assay [4] is FGFR4 (h) (Homo sapiens, UniProt P22455). In words: FGFR4 (enzymatic assay), TR-FRET. Format: biochemical. The following applies: FGFR 4 pIC50, 5 μM ATP, 60 min; pIC50 = -log IC50 (M); average if tested multiple times.
In assay [5] the target is T3, Ba/F3-FGFR1-transfected cells (Homo sapiens, UniProt P11362, cells depend on it, form not given).
T3 construct: other: minus IL3; 24 hours, Alamar Blue
The experiment in a line: Ba/F3-FGFR1 (minus IL3 or plus IL3) cellular proliferation assay, Alamar Blue. The conditions noted are these: minus IL3, 24 hours. Format: cell-based. In a few lines: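 Ba/F3-FGFR1 cells (20000/well) were treated with compound (10 μM–0.1 nM) for 24 h at 37 °C. Alamar Blue was then added for 4 h, with fluorescence read at ex 540/em 590 nm to give IC50/pIC50. A counterscreen was run with 10 ng/ml murine IL3.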

The target of assay [6] is FGFR3 (h) (Homo sapiens, UniProt P22607). In words: FGFR3 (enzymatic assay), TR-FRET. It counts as biochemical. The conditions noted are these: 25 μM ATP, 60 min; pIC50 = -log IC50 (M); average if tested multiple times; read-out: hFGFR 3 pIC50 (converted).
Assay [7] concerns the target KDR (h) (Homo sapiens, UniProt P35968). In words: KDR (VEGFR2) (enzymatic assay), TR-FRET. The conditions noted are these: 3 μM ATP, 120 min; pIC50 = -log IC50 (M); average if tested multiple times; read-out: VEGFR KDR pIC50 (converted). It counts as biochemical. In a few lines:
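Recombinant human KDR (150 ng/ml) phosphorylated 500 nM Btn-Flt3 with 3 μM ATP in HEPES pH 7.5/MnCl2 buffer, 1% DMSO, 120 min at room temperature; EDTA stop with Eu-anti-P-Tyr/SA-XL665 detection, TR-FRET read. IC50 and pIC50 derived from compound concentrations spanning 10 μM to 0.1 nM.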
Background: In TR-FRET formats the signal depends on donor and acceptor labels being close together.

Assay [8] concerns the target FGFR2 (h) (Homo sapiens, UniProt P21802). In words: FGFR2 (enzymatic assay), TR-FRET. Format: biochemical. The following applies: 0.4 μM ATP, 60 min; pIC50 = -log IC50 (M); average if tested multiple times; read-out: FGFR 2 pIC50 (converted).

Ba/F3-FGFR4-transfected cells, sequence (P22455 whole entry, change not shown): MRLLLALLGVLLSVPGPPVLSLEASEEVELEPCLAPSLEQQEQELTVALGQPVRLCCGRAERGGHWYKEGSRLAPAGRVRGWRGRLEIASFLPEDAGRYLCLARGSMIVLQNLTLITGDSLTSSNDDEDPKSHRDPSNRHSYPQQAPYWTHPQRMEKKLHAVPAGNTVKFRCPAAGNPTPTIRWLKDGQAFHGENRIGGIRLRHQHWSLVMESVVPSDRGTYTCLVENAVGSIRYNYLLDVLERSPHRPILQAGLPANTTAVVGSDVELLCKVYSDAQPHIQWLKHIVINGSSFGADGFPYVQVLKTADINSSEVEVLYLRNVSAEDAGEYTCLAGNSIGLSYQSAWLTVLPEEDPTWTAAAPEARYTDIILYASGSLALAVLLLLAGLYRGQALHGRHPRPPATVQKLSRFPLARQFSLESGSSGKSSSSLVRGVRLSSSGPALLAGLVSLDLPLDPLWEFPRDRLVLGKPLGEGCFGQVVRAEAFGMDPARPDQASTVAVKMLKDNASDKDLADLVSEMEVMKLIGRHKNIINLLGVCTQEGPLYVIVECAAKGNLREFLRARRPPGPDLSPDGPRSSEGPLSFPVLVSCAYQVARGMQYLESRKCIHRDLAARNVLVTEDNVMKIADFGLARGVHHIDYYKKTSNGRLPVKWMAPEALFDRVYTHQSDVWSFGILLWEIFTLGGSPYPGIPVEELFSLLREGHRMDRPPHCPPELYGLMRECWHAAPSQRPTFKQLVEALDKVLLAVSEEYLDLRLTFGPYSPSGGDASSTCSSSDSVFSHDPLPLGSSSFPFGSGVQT
T3 sequence (P11362 whole entry, change not shown): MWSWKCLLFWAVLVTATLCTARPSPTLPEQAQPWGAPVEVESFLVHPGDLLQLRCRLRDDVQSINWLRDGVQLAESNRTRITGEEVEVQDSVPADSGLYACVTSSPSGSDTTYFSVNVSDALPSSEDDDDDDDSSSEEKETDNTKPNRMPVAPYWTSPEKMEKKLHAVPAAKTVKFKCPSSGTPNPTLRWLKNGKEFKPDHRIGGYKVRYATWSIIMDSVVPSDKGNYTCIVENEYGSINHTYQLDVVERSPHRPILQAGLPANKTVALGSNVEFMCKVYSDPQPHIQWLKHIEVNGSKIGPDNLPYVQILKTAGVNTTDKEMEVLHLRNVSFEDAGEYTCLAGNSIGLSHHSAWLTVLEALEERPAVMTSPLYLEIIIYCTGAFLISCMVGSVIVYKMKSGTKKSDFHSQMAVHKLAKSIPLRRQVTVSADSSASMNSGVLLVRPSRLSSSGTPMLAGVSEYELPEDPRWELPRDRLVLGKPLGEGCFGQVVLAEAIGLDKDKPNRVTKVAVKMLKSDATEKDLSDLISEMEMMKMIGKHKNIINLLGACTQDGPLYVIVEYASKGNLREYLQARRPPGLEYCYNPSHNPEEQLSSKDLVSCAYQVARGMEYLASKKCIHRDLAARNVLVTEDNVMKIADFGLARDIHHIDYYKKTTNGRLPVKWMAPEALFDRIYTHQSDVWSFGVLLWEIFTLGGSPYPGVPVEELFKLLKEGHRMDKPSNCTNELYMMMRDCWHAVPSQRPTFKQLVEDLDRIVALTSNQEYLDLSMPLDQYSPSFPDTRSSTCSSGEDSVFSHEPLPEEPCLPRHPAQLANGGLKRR
FGFR4 (h), sequence (P22455 22-802): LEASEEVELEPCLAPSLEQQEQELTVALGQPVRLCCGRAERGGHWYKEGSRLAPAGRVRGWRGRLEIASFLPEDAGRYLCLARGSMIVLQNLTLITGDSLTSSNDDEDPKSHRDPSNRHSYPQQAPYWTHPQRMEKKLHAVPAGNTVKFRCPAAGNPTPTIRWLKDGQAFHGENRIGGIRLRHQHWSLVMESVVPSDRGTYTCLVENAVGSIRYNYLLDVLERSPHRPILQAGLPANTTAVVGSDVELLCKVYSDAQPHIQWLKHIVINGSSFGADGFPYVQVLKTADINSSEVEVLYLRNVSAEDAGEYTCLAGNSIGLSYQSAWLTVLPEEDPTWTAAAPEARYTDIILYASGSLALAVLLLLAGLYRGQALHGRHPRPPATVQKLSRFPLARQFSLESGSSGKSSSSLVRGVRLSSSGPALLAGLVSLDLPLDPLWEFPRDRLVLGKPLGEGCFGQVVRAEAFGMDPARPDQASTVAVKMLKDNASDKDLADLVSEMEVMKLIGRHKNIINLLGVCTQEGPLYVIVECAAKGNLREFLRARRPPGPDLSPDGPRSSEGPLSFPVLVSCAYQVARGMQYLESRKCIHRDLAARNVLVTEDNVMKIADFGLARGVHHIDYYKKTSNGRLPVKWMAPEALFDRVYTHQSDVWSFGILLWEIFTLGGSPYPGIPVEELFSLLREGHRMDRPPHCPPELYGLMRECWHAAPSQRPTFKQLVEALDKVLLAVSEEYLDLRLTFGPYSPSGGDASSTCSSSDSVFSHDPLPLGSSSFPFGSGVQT
FGFR3 (h), sequence (P22607 23-806): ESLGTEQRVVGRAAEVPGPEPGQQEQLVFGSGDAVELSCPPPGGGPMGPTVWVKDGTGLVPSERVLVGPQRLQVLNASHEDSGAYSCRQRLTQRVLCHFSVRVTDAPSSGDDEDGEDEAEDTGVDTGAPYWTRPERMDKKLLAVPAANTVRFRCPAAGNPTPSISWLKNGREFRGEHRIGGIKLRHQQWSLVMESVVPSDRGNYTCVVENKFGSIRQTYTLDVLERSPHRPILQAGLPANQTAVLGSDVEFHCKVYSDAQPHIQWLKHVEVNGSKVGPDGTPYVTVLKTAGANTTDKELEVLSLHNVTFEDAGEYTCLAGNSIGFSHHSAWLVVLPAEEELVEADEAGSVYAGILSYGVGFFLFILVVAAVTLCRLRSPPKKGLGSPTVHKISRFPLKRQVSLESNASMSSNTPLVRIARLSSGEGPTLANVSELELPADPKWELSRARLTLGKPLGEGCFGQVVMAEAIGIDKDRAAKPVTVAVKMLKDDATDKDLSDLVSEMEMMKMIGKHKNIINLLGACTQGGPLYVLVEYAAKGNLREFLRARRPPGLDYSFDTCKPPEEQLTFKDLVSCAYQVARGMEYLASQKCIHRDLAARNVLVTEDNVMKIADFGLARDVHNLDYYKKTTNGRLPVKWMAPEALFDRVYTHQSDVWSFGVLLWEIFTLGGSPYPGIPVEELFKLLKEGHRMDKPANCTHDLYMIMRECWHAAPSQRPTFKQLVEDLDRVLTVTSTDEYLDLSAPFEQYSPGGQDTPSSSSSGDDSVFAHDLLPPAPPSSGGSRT
FGFR2 (h), sequence (P21802 22-821): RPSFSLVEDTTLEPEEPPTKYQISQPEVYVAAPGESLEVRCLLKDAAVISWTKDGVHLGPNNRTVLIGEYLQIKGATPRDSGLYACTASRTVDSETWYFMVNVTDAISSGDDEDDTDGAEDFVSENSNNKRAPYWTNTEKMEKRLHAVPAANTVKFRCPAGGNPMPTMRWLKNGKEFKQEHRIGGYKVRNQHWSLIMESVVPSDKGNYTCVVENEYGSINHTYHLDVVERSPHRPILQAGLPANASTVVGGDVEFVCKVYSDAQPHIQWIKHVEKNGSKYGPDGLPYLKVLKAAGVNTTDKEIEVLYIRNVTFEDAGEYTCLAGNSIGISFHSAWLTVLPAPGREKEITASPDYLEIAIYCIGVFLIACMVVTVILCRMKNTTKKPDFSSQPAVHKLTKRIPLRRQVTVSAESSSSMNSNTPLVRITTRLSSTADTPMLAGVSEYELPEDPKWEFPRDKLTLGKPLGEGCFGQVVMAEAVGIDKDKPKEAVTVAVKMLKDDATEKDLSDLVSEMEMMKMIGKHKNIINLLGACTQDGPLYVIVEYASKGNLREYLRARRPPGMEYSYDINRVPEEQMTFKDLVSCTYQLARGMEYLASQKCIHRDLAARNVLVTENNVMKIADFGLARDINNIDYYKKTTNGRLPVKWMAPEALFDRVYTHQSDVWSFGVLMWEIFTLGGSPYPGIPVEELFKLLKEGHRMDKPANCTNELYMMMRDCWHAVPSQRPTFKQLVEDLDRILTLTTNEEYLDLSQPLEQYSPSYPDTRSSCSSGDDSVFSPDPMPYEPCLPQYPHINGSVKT
T1 sequence (P22607 whole entry, change not shown): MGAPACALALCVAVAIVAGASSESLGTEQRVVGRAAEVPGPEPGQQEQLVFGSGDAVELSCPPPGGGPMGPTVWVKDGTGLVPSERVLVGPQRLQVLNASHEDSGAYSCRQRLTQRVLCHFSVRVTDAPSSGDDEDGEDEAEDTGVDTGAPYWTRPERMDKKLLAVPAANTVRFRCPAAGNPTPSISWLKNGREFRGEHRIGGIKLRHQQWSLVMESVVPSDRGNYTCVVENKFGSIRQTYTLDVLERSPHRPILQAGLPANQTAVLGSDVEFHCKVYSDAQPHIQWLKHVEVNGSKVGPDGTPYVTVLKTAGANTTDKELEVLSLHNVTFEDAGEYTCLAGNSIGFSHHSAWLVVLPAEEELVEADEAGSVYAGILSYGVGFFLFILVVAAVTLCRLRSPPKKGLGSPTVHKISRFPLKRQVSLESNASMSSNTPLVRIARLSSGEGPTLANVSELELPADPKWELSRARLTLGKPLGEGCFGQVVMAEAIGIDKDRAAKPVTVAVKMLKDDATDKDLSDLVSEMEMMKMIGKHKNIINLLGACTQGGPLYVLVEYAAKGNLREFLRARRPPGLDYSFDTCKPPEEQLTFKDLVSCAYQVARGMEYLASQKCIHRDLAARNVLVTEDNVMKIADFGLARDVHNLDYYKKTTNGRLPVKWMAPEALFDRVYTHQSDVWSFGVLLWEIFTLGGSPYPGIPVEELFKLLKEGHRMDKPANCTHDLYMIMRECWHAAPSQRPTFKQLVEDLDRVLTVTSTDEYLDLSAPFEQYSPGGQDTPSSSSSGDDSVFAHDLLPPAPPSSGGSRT

Turning to `CNCCN(c1ccc2ncc(-c3cnn(C)c3)cc2c1)c1c(F)c(OC)cc(OC)c1F` [Compound 43], the “BAF3-FGFR3 (MIN IL3 Alamar Blue- pIC50)” value in assay [1] is listed as about 8. The “BAF3-KDR (MIN IL3 Alamar Blue pIC50)” value in assay [2] is reported as 6.51. For the same molecule, the “BAF3-FGFR 4 (pIC50)” value in assay [3] is about 8.02. The IC50 in assay [4] is 2.63e-09 M; in assay [6], 2.4e-09 M; in assay [7], 1.48e-08 M; in assay [8], 2.45e-09 M. Further, the “BAF3-FGFR1 (MIN IL3 pIC50)” value in assay [5] turned out to be 8.68.

For `COc1cc(OC)cc(N(CCCN2CCCC2CNS(=O)(=O)C(F)(F)F)c2ccc3ncc(-c4cnn(C)c4)cc3c2)c1` (stereo not shown) [Compound 47], in assay [1], the “BAF3-FGFR3 (MIN IL3 Alamar Blue- pIC50)” value stood at 8.46. For the same molecule, in assay [2], the “BAF3-KDR (MIN IL3 Alamar Blue pIC50)” value was 6.44. Moreover, the “BAF3-FGFR 4 (pIC50)” value in assay [3] is on record as 7.44. Besides, the IC50 in assay [4] is 2.19e-09 M; in assay [6] it was 1.32e-09 M; in assay [7], 1.17e-08 M; in assay [8] it was 3.89e-09 M. Besides, the “BAF3-FGFR1 (MIN IL3 pIC50)” value in assay [5] was about 8.03.

As for `COc1cc(OC)cc(N(CC#Cc2nccn2C)c2ccc3ncc(-c4cnn(C)c4)cc3c2)c1` [Compound 48], the “BAF3-FGFR3 (MIN IL3 Alamar Blue- pIC50)” value in assay [1] is recorded as 7.62. In assay [2], the “BAF3-KDR (MIN IL3 Alamar Blue pIC50)” value is reported as 5.02. The “BAF3-FGFR 4 (pIC50)” value in assay [3] stood at 7.17. For the same molecule, the IC50 in assay [4] was 3.16e-08 M; in assay [6], 7.94e-09 M; in assay [7] it was 2.88e-07 M; in assay [8] it was 1.45e-08 M. In assay [5], the “BAF3-FGFR1 (MIN IL3 pIC50)” value turned out to be 7.24.

Turning to `COc1cc(OC)cc(N(Cc2ncc[nH]2)c2ccc3ncc(-c4ccncc4)cc3c2)c1` [Compound 57], the “BAF3-FGFR3 (MIN IL3 Alamar Blue- pIC50)” value in assay [1] is about 6.77. In addition, the “BAF3-KDR (MIN IL3 Alamar Blue pIC50)” value in assay [2] was under 5. Further, the “BAF3-FGFR 4 (pIC50)” value in assay [3] amounted to 6.16. Further, the IC50 in assay [4] was 4.47e-09 M; in assay [6] it was 1.05e-09 M; in assay [7], 4.57e-07 M; in assay [8], 2.29e-09 M. In addition, the “BAF3-FGFR1 (MIN IL3 pIC50)” value in assay [5] was determined as 6.75.

For `COc1cc(OC)cc(N(Cc2nccn2S(=O)(=O)N(C)C)c2ccc3ncc(-c4ccncc4)cc3c2)c1` [Compound 58], the “BAF3-FGFR3 (MIN IL3 Alamar Blue- pIC50)” value in assay [1] came out at 5.57. For the same molecule, the “BAF3-KDR (MIN IL3 Alamar Blue pIC50)” value in assay [2] was under 5. For the same molecule, the “BAF3-FGFR 4 (pIC50)” value in assay [3] is listed as under 5. In addition, the IC50 in assay [4] is 1.86e-07 M; in assay [6], 2.75e-08 M; in assay [7] it was 7.24e-07 M; in assay [8] it was 1.29e-08 M. Moreover, the “BAF3-FGFR1 (MIN IL3 pIC50)” value in assay [5] is about 5.86.

Turning to `COc1cc(OC)cc(N(Cc2ncc[nH]2)c2ccc3ncc(-c4cccnc4)cc3c2)c1` [Compound 59], in assay [1], the “BAF3-FGFR3 (MIN IL3 Alamar Blue- pIC50)” value was determined as 6.50. Also, the “BAF3-KDR (MIN IL3 Alamar Blue pIC50)” value in assay [2] is under 5. Further, in assay [3], the “BAF3-FGFR 4 (pIC50)” value is reported as 6.02. In addition, the IC50 in assay [4] is 7.41e-09 M; in assay [6], 1.74e-09 M; in assay [7] it was 8.51e-07 M; in assay [8], 3.02e-09 M. The “BAF3-FGFR1 (MIN IL3 pIC50)” value in assay [5] was determined as 6.36.

Consider `COc1cc(OC)cc(N(Cc2nccn2S(=O)(=O)N(C)C)c2ccc3ncc(-c4cccnc4)cc3c2)c1` [Compound 60], for which the “BAF3-FGFR3 (MIN IL3 Alamar Blue- pIC50)” value in assay [1] was determined as 5.22. For the same molecule, in assay [2], the “BAF3-KDR (MIN IL3 Alamar Blue pIC50)” value is recorded as under 5. Besides, in assay [3], the “BAF3-FGFR 4 (pIC50)” value is recorded as under 5. Besides, the IC50 was 2.51e-07 M in assay [4], 3.16e-08 M in assay [6], over 1e-06 M in assay [7] and 1.95e-08 M in assay [8]. Moreover, the “BAF3-FGFR1 (MIN IL3 pIC50)” value in assay [5] was determined as 5.37.

`COc1cc(Nc2ccc3ncc(-c4cnn(C5CCCCO5)c4)cc3c2)cc(OC)c1` (stereo not shown) [Int. 8]: the “BAF3-FGFR3 (MIN IL3 Alamar Blue- pIC50)” value in assay [1] is listed as about 5.53. The “BAF3-KDR (MIN IL3 Alamar Blue pIC50)” value in assay [2] is reported as under 5. Further, in assay [3], the “BAF3-FGFR 4 (pIC50)” value is given as 5.04. The IC50 in assay [4] was 4.9e-07 M; in assay [6], 3.72e-08 M; in assay [7], 3.16e-07 M; in assay [8], 3.72e-08 M. Also, the “BAF3-FGFR1 (MIN IL3 pIC50)” value in assay [5] turned out to be 5.29.
